Consider two compounds from PMC4988501, “Pinpointing a Mechanistic Switch Between Ketoreduction and “Ene” Reduction in Short‐Chain Dehydrogenases/Reductases” (Angewandte Chemie (International Ed. in English), 2016).

Assay type in all cases: binding
The target of test [1] is T1, IPR (isopiperitenone reductase) (Mentha x piperita, UniProt Q6WAU1).
T1 construct: recombinant; scavenged NADP+ from host cells; catalytic Glu238; construct details only in supplement
As to the kind of experiment: X-ray crystal structure. As to conditions: oxidised cofactor scavenged from expression host.

In test [2] the target is T2, MNMR ((−)‐menthone:(+)‐neomenthol reductase) (Mentha x piperita, UniProt Q06ZW2).
T2 construct: recombinant; catalytic Tyr244; construct details only in supplement
T2 sequence (Q06ZW2 entry or part of it): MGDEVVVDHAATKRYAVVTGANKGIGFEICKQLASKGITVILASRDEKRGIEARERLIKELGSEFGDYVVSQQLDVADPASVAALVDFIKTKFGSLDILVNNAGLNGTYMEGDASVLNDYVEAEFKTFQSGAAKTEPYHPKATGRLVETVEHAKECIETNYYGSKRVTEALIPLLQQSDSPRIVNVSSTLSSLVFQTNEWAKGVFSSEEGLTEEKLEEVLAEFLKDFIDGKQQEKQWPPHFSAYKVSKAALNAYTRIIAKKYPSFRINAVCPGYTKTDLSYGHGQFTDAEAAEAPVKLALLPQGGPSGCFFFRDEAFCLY
Briefly: X-ray crystal structure, crystal soaking. As to conditions: crystals soaked with NADP+.

Test [3] has as its target T1, IPR (isopiperitenone reductase). Briefly: X-ray crystal structure of complex. As to conditions: non-substrate, bound in a non-active conformation; with NADP+.

T1 sequence (Q6WAU1 whole entry): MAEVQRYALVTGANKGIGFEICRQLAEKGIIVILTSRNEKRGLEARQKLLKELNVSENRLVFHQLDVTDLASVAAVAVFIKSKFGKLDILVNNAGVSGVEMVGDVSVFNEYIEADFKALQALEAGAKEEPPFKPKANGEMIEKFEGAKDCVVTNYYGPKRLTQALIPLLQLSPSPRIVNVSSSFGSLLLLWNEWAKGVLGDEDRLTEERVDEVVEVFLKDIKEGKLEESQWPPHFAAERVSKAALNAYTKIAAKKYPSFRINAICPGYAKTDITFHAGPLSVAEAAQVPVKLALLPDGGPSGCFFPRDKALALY

`NC(=O)c1ccc[n+]([C@@H]2O[C@H](COP(=O)(O)OP(=O)(O)OC[C@H]3O[C@@H](n4cnc5c(N)ncnc54)[C@H](OP(=O)(O)O)[C@@H]3O)[C@@H](O)[C@H]2O)c1` [NADP+]: the X-ray crystal structure entry in test [1] is “presence of clear density in the F0−Fc map for NADP^+”. Besides, the “X-ray crystal structure, crystal soaking” value in test [2] is “A coenzyme‐bound MNMR structure was obtained by soaking crystals with NADP^+”. In the case of `CC1=C(C=O)C(C)(C)CCC1` [β‐cyclocitral], in test [3], the “X-ray crystal structure of complex” value is “The IPR–β‐cyclocitral co‐crystal structure shows the ligand binds in a non‐active conformation”.
